Experimental data reported in ChEMBL document CHEMBL1148297, “Synthesis and biological evaluation of analogues of 7-chloro-4,5-dihydro-4- oxo-8-(1,2,4-triazol-4-yl)-1,2,4-triazolo[1,5-a]quinoxaline-2-carboxylic acid (TQX-173) as novel selective AMPA receptor antagonists” (J Med Chem, 2004).

Columns and labels:
[1] = target: Glutamate receptor ionotropic, AMPA (Rattus norvegicus, UniProt P19490+P19491+P19492+P19493)
Description: Binding affinity towards ionotropic glutamate receptor (high-affinity) of rat cortical synaptic membranes by using [3H]AMPA as radioligand

[2] = target: Glutamate receptor ionotropic, NMDA 1 (Rattus norvegicus, UniProt P35439); experiment: Binding affinity towards N-methyl-D-aspartate glutamate receptor 1 (high affinity) of rat cortical synaptic membranes by using [3H]Gly as radioligand
[3] = target: Glutamate receptor ionotropic, kainate; experiment: Inhibition concentration towards high-affinity ionotropic glutamate receptor kainate of rat cortical membranes by using [3H]KA as radioligand
[4] = organism: Mus musculus; experiment: Concentration necessary for 50% inhibition of depolarization induced by 5 uM NMDA in mouse cortical wedge preparation; assay type: functional
[5] = organism: Rattus norvegicus; experiment: Concentration that inhibits 50% S-AMPA stimulated (50 uM) [3H]norepinephrine release from rat hippocampal synaptosomes; assay type: functional; conditions: Hippocampus
[6] = target: Glutamate receptor ionotropic, NMDA 1 (Rattus norvegicus) (UniProt P35439); experiment: Percent inhibition of compound at 100 uM towards N-methyl-D-aspartate glutamate receptor 1 (high affinity) of rat cortical synaptic membranes by using [3H]-Gly as radioligand; assay type: cell membranes; conditions: Membrane
[7] = Ratio of IC50 of KA low-affinity receptor site to KA high-affinity receptor site
[8] = organism: Mus musculus; experiment: Concentration necessary for 50% inhibition of depolarization induced by 5 uM S-AMPA in mouse cortical wedge preparation; assay type: functional
[9] = target: Glutamate receptor ionotropic, kainate; experiment: Inhibition concentration towards low-affinity Ionotropic glutamate receptor kainate of rat cortical membranes by using [3H]-KA as radioligand
[10] = target: Glutamate receptor ionotropic, kainate (Rattus norvegicus) (UniProt P22756+Q01812+P42260+P42264+Q63273); experiment: Percent inhibition of compound at 100 uM towards high-affinity Ionotropic glutamate receptor kainate of rat cortical membranes by using [3H]KA as radioligand; assay type: cell membranes; conditions: Membrane
[11] = organism: Rattus norvegicus; experiment: Concentration giving 50% inhibition of stimulated [3H](+)-MK-801 binding in rat cortical membranes incubated with 10 uM glutamate and 0.1 uM glycine

Row | SMILES | Ki [1] | Ki [2] | IC50 [3] | also measured
1 | NS(=O)(=O)c1cccc2c1c([N+](=O)[O-])cc1nc(O)c(O)nc12 [NBQX] |  |  |  | IC50 [4]: Not Active; IC50 [5]: 4 µM
2 | CCOC(=O)c1nc2c(O)nc3cc(Cl)c(-n4cnnc4)cc3n2n1 |  |  |  | inhibition [6]: 15%
3 | O=C(O)c1cc(O)c2c(Cl)cc(Cl)cc2n1 |  | 0.09 µM |  | 
4 | O=C(O)c1ccn(-c2cc3c(cc2C(F)(F)F)nc(O)c2nc(C(=O)O)nn23)c1 |  |  |  | IC50 ([4]; Mus musculus, read-out: IC50): 60 µM; Ratio [7]: 0.48; IC50 [8]: 1.3 µM; IC50 [5]: 7.5 µM
5 | O=C(O)c1nc2c(=O)[nH]c3cc([N+](=O)[O-])c(-n4cccc4)cc3n2n1 | 0.088 µM | 65 µM | 5.1 µM | IC50 [9]: 1.7 µM
6 | O=C(O)c1ccn(-c2cc3c(cc2[N+](=O)[O-])nc(O)c2nc(C(=O)O)nn23)c1 | 0.019 µM |  | 17 µM | inhibition [6]: 7%
7 | CCOC(=O)c1nc2c(O)nc3cc(C(F)(F)F)c([N+](=O)[O-])cc3n2n1 |  |  |  | inhibition [10]: 24%
8 | O=C(O)c1nc2c(=O)[nH]c3cc(C(F)(F)F)c(-n4cnnc4)cc3n2n1 | 0.095 µM | 3.6 µM | 9.6 µM | IC50 [9]: 1.8 µM
9 | O=Cc1ccn(-c2cc3c(cc2C(F)(F)F)nc(O)c2nc(C(=O)O)nn23)c1 |  |  |  | IC50 ([4]; Mus musculus, read-out: IC50): 50 µM; IC50 [11]: 11 µM; Ratio [7]: 0.18; IC50 [8]: 1 µM; IC50 [5]: 8.1 µM
10 | O=C(O)c1nc2c(O)nc3cc(C(F)(F)F)c(-n4cnnc4)cc3n2n1 |  |  |  | IC50 ([4]; Mus musculus, read-out: IC50): 60 µM; Ratio [7]: 0.19; IC50 [8]: 0.8 µM; IC50 [5]: 5.8 µM
11 | O=C(O)c1nc2c(=O)[nH]c3cc(C(F)(F)F)c([N+](=O)[O-])cc3n2n1 | 2.35 µM | 4.4 µM | 43 µM | 
12 | O=C(O)c1ccn(-c2cc3c(cc2C(F)(F)F)[nH]c(=O)c2nc(C(=O)O)nn23)c1 | 0.037 µM | 35 µM | 5.4 µM | IC50 [9]: 2.6 µM
13 | O=C(O)c1nc2c(O)nc3cc([N+](=O)[O-])c(-n4cccc4)cc3n2n1 |  |  |  | IC50 ([4]; Mus musculus, read-out: IC50): 50 µM; Ratio [7]: 0.33; IC50 [8]: 1 µM; IC50 [5]: 19 µM
14 | CCOC(=O)c1nc2c(=O)[nH]c3cc(C(F)(F)F)c(N4C(=O)C=C(C=O)C4=O)cc3n2n1 | 12.8 µM | 10.9 µM | 42 µM | 
15 | O=C(O)c1nc2c(O)nc3cc(C(F)(F)F)c(-n4cccc4)cc3n2n1 | 0.28 µM | 8.3 µM | 18.1 µM | IC50 ([4]; Mus musculus, read-out: IC50): 80 µM; IC50 [11]: 12.7 µM; IC50 [8]: 1.5 µM; IC50 [5]: 11 µM
16 | CCOC(=O)c1nc2c(O)nc3cc(C(F)(F)F)c(N)cc3n2n1 |  |  |  | inhibition [10]: 45%
17 | O=C(O)c1nc2c(=O)[nH]c3cc(Cl)c(-n4cnnc4)cc3n2n1 [TQX-173] |  |  | 11.3 µM | IC50 [11]: 68 µM; IC50 [5]: 28 µM
18 | O=Cc1ccn(-c2cc3c(cc2C(F)(F)F)[nH]c(=O)c2nc(C(=O)O)nn23)c1 | 0.12 µM | 2.6 µM | 5.6 µM | IC50 [9]: 1 µM
19 | O=C(O)c1nc2c(O)nc3cc(C(F)(F)F)c(-n4ccnc4)cc3n2n1 | 0.12 µM | 34 µM | 13 µM | 

Now from value to compound, other results behind:

Row | Ki [1] | Ki [2] | IC50 [3] | SMILES | also measured
20 | 0.35 µM | 54 µM | 71 µM | CCOC(=O)c1nc2c(O)nc3cc(C(F)(F)F)c(-n4ccnc4)cc3n2n1 | 
21 | 1.4 µM | 84 µM | 41 µM | CCOC(=O)c1nc2c(=O)[nH]c3cc([N+](=O)[O-])c(-n4cccc4)cc3n2n1 | 
22 | 9 µM | 62 µM |  | CCOC(=O)c1nc2c(=O)[nH]c3cc(C(F)(F)F)c([N+](=O)[O-])cc3n2n1 | 
23 | 6.5 µM | 85 µM | 41 µM | CCOC(=O)c1nc2c(=O)[nH]c3cc([N+](=O)[O-])c(NC(C)=O)cc3n2n1 | 
24 | 0.35 µM |  | 12.9 µM | CCOC(=O)c1nc2c(O)nc3cc(C(F)(F)F)c(-n4ccc(C(=O)O)c4)cc3n2n1 | inhibition [6]: 33%
25 | 0.65 µM |  | 44.4 µM | CCOC(=O)c1nc2c(O)nc3cc([N+](=O)[O-])c(-n4ccc(C=O)c4)cc3n2n1 | inhibition [6]: 28%
26 | 0.7 µM | 2.7 µM | 20 µM | Nc1cc2c(cc1[N+](=O)[O-])[nH]c(=O)c1nc(C(=O)O)nn12 | 
27 | 0.37 µM | 71 µM | 31.2 µM | CCOC(=O)c1nc2c(O)nc3cc(C(F)(F)F)c(-n4ccc(C=O)c4)cc3n2n1 | IC50 [4]: Not Active; IC50 [8]: 7.8 µM
28 | 1.2 µM | 3.7 µM | 69 µM | CCOC(=O)c1nc2c(O)nc3cc([N+](=O)[O-])c(N)cc3n2n1 | 
29 | 0.18 µM |  | 8.2 µM | O=Cc1ccn(-c2cc3c(cc2[N+](=O)[O-])nc(O)c2nc(C(=O)O)nn23)c1 | IC50 ([4]; Mus musculus, read-out: IC50): 52 µM; IC50 [9]: 1.2 µM; Ratio [7]: 0.15; inhibition [6]: 43%; IC50 [8]: 3.1 µM; IC50 [5]: 12 µM
30 | 1.2 µM | 1.5 µM | 24 µM | Nc1cc2c(cc1C(F)(F)F)nc(O)c1nc(C(=O)O)nn12 | 
31 | 1.14 µM | 63 µM | 22.2 µM | CC(=O)Nc1cc2c(cc1[N+](=O)[O-])nc(O)c1nc(C(=O)O)nn12 | 
32 | 5.5 µM | 5.5 µM |  | CCOC(=O)c1nc2c(=O)[nH]c3cc(C(F)(F)F)c(N)cc3n2n1 | 
33 | 0.2 µM |  | 92 µM | CCOC(=O)c1nc2c(O)nc3cc(C(F)(F)F)c(-n4cnnc4)cc3n2n1 | IC50 ([4]; Mus musculus, read-out: IC50): > 150 µM; inhibition [6]: 42%; IC50 [8]: 12 µM
34 | 0.068 µM |  |  | CCOC(=O)c1nc2c(O)nc3cc([N+](=O)[O-])c(-n4ccc(C(=O)O)c4)cc3n2n1 | inhibition [6]: 16%
35 | 2.2 µM | 75 µM |  | CCOC(=O)c1nc2c(O)nc3cc(C(F)(F)F)c(-n4cccc4)cc3n2n1 | inhibition [10]: 5%
